According to patent US20250319094A1, “COMPOSITION FOR PREVENTING OR TREATING ATOPIC DERMATITIS” (Yonsei University BioHealth Technology Holdings, Inc., priority 2022, published 2025):

What was measured:
[1] = test system: normal skin tissue; assay: Cell viability (CCK-8) cytotoxicity on normal skin tissue cells; format: cell-based; conditions: overnight
Procedure: We sought to determine the optimal concentration of the drug Bentamapimod identified above that would not affect the cytotoxicity of the drug. To determine the final concentration of the drug, normal skin tissue was seeded as cells in […] 96-well plates using 5% (v/v) RPMI1640 medium (LONZA) and 1% penicillin/streptomycin medium and treated with bentamapimod at concentrations of 1 μM, 10 μM, 50 μM, 100 μM, and 200 μM, respectively, and incubated overnight in a 37° C. incubator. Then, 10 μl of Cell Counting Kit-8 drug (Dojindo Lot. PR863) was seeded into 96-well plates and the absorbance was measured at […] after 2 h.

[2] = test system: atopic dermatitis-induced flaky tail mice; assay: Treatment effect in HDM-induced atopic dermatitis mouse model (clinical photograph, dermatitis score); format: in vivo; conditions: 50 μM or 100 μM, 200 μL on back, 4 weeks
Procedure: The backs of the mice were shaved and exfoliated with a 4% diluted sodium dodecyl sulfate solution (SIGMA Lot #BCCD5615) once every 3 days to remove dead skin cells, and House Dust Mite (HDM), a typical trigger/exacerbator of atopic dermatitis, was topically applied to the mice to induce atopic skin lesions. The house dust mite ointment used was Atopic dermatitis challenging ointment from Biostir (Osaka, Japan), and atopic dermatitis-induced mice were prepared as described above (see FIG. 1).
In order to determine whether the bentamapimod drug discovered above has a therapeutic effect on atopic dermatitis, experiments were conducted using the mouse model prepared in the preliminary example and divided into control and experimental groups according to the timeline diagram shown in FIG. 4. […] To further verify the treatment effect, the flaky tail Mice dermatitis score of the atopic dermatitis mouse model according to the drug treatment was calculated by Wilcoxon-signed rank test and shown in FIG. 6. […]

[3] = test system: atopic dermatitis-induced flaky tail mice; assay: Acute wiping (pain) and scratching (itching) behavior after drug application; format: in vivo, mouse
From the text: The existing drug dexamethasone is widely used as a treatment for atopic dermatitis, but long-term use causes various local side effects such as skin atrophy, dilated skin capillaries, and hypopigmented spots. Tacrolimus, which was developed to minimize these long-term local side effects, solved the problem of long-term and permanent local side effects of steroid drugs, but short-term skin irritation symptoms are emerging as a new problem, as it is known that about 50% of patients experience burning and skin rash at the beginning of application. Therefore, it is necessary to overcome the skin irritation side effects, and we wanted to check whether the newly discovered drug of bentamapimod can resolve the above side effects while maintaining the effectiveness of the animal drug through behavioral analysis of pain and itching using Flaky Tail mice. Wiping the face with the forelegs was interpreted as a behavioral measure of pain in mice, and scratching with the hind legs was interpreted as a behavioral measure of itching (J Vis Exp. 2019 Sep. 27; (151)). […] Flaky tail mice were treated with 200 μL of the test agent per group for one week to facilitate comparison, and the number of itches and pain behaviors were quantified and graphed (see FIG. 8a and FIG. 8b).

[4] = test system: flaky tail mice; assay: Chronic itch behavior before and after application of test drug; format: in vivo, mouse; conditions: drug 3 times a week for 4 weeks after 4 weeks HDM; before vs after application
Procedure: Additional experiments were performed to compare the ITCH behavior before and after application of the dexamethasone, tacrolimus, and bentamapimod agents disclosed above. Specifically, atopic dermatitis was induced by applying 100 mg of HDM ointment to the backs of flaky tail mice for 4 weeks, after which drug treatments were applied 3 times a week for 4 weeks, and the chronic itch behavior before and after application of these test drugs was quantified and graphed (see FIG. 9a and FIG. 9b).

[5] = test system: skin-specific T cells; assay: Flow cytometry of T cell fractions in skin of atopic dermatitis mouse model; format: in vivo; conditions: 4 weeks
Procedure: (§1) To test the effect of the newly discovered bentamapimod drugs on skin-specific T cells, flaky tail mice were induced with atopic skin lesions using HDM three times a week until week 4 of the experiment as described in the Preparations and Examples above, and then treated with each drug at different concentrations for another 4 weeks. To determine changes in skin-specific T cells in each animal, single suspensions were then prepared from spleen, skin, and lymph nodes, and T cells were stained with anti-CD3, anti-CD4, anti-CD8, and anti-CD45 antibodies. Flow cytometric analysis of skin-specific T cells was performed using anti-CD69 and anti-CD103 antibodies to observe changes in the number and distribution of skin-specific T cells in response to drug application.

[6] = test system: T cells in skin-draining lymph nodes; assay: FACS of T cell fractions in skin-draining lymph nodes of atopic dermatitis mouse model; format: in vivo
Procedure: as §1

[7] = test system: skin-specific T cells; assay: Flow cytometry of skin T cells from atopic dermatitis patient skin after drug application; format: cell-based, human; conditions: immune cell fractions from skin tissue of atopic dermatitis patients
Procedure: To test the effect of the candidate drug on skin-specific T cells in human skin tissue, a single suspension was prepared using skin from a patient with atopic dermatitis. T cells were stained using anti-CD3, anti-CD4, anti-CD8, and anti-CD45 antibodies, and flow cytometry was performed on skin T cells using the skin TRM markers CD69 and CD103 to observe changes in the number and distribution of skin-specific T cells in response to drug application.

[8] = at the beginning of application; cited from earlier work

## N#CC(c1ccnc(OCc2ccc(CN3CCOCC3)cc2)n1)c1nc2ccccc2s1 (stereo not drawn) [bentamapimod, α-[2-[[4-(4-morpholinylmethyl)phenyl]methoxy]-4-pyrimidinyl]-2-benzothiazoleacetonitrile]
[1]; 50 μM
  cell viability: greater than 90%
[1]; 100 μM
  cell viability: greater than 90%
[2]; FIG. 6
  atopic dermatitis scores (Flaky tail Mice dermatitis score): equivalent to or better than those of conventional drugs
[2]; compared to conventional drugs, FIG. 5
  treatment effect on atopic dermatitis skin lesions (wounding, dryness, desquamation, erythema, hemorrhage, edema): clinically significant treatment effect
[3]; 50 μM and 100 μM
  local irritation symptoms such as itching and pain: did not cause local irritation symptoms
[3]; 50 μM, 200 μL on back
  number of scratching and wiping behaviors versus control D.W group: no difference
[3]; 100 μM, 200 μL on back
  number of scratching and wiping behaviors versus control D.W group: no difference
[4]
  chronic scratching behavior, treatment effect: treatment effect was particularly significant
[5]; 50 μM
  percentage of CD3+, CD4+ T cells in the skin: significantly reduced in a dose-dependent manner
[5]; 100 μM
  percentage of CD3+, CD4+ T cells in the skin: significantly reduced in a dose-dependent manner
[5]; skin
  percentage of CD69+ T cells and CD103+ T cells (skin-resident T cells): significantly reduced
  percentage of skin-specific T cells compared to the control 0.1% dexamethasone group: significantly reduced
[6]; 100 μM
  CD3+ T cells in skin-draining lymph nodes: statistically significantly lower
[6]; 100 μM, skin-draining lymph nodes
  CD3+ CD4+ CD69+ CD103+ T cells: statistically significantly lower
[6]; skin-draining lymph nodes
  fraction of T cells expressing CD69 among CD3+ CD4+ T cells: reduced
  percentage of T cells compared to the 0.1% dexamethasone group: significantly reduced
[7]; 50 μM
  percentage of skin-specific T cells: significant dose-dependent decrease
[7]; 100 μM
  percentage of skin-specific T cells: significant dose-dependent decrease

## C=CC[C@@H]1/C=C(\C)C[C@H](C)C[C@H](OC)[C@H]2O[C@@](O)(C(=O)C(=O)N3CCCC[C@H]3C(=O)O[C@H](/C(C)=C/[C@@H]3CC[C@@H](O)[C@H](OC)C3)[C@H](C)[C@@H](O)CC1=O)[C@H](C)C[C@@H]2OC [tacrolimus]
[3]; 0.1% concentration, 200 μL on back
  time at which wiping behaviors peaked: 30 min
[3]; 0.1% concentration, 200 μL on back, in 30 minutes
  number of scratching behaviors: 17 times
[8]
  patients who experience burning and skin rash: about 50%
